Assay results taken from publication PMC7026418, “The kinase polypharmacology landscape of clinical PARP inhibitors” (Scientific Reports, 2020).
Read-outs that look alike come from different tables or passages of the source.

Experiments:
Assay in all cases: biochemical
Set-up in all cases: DiscoveRx KINOMEscan active site-directed competition binding; percent of control kinase bound to immobilised ligand
[1] = target: CSNK1A1 (Homo sapiens, UniProt P48729)
[2] = target: MAP3K4 (Homo sapiens, UniProt Q9Y6R4)
[3] = target: T1, CAMK1B (Homo sapiens, UniProt Q6P2M8)
T1 construct: gene PNCK

[4] = target: T2, BMX (Homo sapiens, UniProt P51813)
T2 sequence (P51813 1-675): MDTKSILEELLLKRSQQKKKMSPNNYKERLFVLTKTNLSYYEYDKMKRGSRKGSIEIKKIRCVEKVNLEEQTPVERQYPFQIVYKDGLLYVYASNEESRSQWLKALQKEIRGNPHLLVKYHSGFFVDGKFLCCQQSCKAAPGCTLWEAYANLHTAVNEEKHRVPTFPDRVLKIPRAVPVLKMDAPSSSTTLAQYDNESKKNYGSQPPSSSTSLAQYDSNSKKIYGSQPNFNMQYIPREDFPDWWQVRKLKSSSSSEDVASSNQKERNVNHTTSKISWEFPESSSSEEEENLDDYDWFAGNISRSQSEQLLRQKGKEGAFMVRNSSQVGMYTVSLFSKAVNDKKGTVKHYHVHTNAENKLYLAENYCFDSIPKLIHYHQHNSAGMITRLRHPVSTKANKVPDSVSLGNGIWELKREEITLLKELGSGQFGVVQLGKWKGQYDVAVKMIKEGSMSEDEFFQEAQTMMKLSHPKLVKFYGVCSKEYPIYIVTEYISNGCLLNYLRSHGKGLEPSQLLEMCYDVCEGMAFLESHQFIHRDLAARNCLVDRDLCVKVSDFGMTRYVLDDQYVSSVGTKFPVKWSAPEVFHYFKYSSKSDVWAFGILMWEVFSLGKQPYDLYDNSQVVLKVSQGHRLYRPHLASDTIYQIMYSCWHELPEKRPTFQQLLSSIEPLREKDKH

[5] = target: T3, OSR1 (Homo sapiens, UniProt O95747)
T3 construct: gene OXSR1

[6] = target: T4, FLT3 (Homo sapiens, UniProt P36888)
T4 sequence (P36888 1-993): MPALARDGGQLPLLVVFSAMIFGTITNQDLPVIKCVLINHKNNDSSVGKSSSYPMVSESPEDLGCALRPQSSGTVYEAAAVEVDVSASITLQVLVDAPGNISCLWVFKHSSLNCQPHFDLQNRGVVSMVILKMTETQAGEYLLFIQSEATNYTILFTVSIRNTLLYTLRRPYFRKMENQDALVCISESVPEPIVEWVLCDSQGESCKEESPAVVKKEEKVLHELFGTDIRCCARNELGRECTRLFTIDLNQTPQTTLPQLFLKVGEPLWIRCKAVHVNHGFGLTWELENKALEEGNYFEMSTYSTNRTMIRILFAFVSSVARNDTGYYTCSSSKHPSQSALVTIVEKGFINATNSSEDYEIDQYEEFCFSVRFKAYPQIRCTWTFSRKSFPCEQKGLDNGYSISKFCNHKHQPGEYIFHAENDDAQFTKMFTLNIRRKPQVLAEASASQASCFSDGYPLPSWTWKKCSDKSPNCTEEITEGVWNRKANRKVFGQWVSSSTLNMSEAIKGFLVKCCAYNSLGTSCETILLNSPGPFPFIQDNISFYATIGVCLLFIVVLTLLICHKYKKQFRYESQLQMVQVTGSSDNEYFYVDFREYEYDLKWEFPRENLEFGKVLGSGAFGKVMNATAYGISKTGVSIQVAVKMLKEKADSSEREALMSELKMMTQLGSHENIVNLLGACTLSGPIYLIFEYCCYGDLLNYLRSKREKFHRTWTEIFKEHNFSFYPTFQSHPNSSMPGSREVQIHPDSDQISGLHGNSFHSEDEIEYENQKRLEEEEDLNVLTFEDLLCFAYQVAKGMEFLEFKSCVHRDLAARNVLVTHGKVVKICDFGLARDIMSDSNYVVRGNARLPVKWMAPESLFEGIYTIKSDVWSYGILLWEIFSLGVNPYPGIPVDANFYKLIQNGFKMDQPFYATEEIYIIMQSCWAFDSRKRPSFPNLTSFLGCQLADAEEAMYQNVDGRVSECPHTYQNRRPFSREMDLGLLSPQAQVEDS

[7] = target: GSK3A (Homo sapiens, UniProt P49840)
[8] = read-out: Niraparib (MK-4827) / %Ctrl @ 10000nM
[9] = read-out: Olaparib / %Ctrl @ 10000nM
[10] = read-out: Rucaparib / %Ctrl @ 10000nM, binding competition, % of control
[11] = read-out: Talazoparib (BMN 673) / %Ctrl @ 10000nM

Chain of MAP3K4 (Q9Y6R4 whole entry): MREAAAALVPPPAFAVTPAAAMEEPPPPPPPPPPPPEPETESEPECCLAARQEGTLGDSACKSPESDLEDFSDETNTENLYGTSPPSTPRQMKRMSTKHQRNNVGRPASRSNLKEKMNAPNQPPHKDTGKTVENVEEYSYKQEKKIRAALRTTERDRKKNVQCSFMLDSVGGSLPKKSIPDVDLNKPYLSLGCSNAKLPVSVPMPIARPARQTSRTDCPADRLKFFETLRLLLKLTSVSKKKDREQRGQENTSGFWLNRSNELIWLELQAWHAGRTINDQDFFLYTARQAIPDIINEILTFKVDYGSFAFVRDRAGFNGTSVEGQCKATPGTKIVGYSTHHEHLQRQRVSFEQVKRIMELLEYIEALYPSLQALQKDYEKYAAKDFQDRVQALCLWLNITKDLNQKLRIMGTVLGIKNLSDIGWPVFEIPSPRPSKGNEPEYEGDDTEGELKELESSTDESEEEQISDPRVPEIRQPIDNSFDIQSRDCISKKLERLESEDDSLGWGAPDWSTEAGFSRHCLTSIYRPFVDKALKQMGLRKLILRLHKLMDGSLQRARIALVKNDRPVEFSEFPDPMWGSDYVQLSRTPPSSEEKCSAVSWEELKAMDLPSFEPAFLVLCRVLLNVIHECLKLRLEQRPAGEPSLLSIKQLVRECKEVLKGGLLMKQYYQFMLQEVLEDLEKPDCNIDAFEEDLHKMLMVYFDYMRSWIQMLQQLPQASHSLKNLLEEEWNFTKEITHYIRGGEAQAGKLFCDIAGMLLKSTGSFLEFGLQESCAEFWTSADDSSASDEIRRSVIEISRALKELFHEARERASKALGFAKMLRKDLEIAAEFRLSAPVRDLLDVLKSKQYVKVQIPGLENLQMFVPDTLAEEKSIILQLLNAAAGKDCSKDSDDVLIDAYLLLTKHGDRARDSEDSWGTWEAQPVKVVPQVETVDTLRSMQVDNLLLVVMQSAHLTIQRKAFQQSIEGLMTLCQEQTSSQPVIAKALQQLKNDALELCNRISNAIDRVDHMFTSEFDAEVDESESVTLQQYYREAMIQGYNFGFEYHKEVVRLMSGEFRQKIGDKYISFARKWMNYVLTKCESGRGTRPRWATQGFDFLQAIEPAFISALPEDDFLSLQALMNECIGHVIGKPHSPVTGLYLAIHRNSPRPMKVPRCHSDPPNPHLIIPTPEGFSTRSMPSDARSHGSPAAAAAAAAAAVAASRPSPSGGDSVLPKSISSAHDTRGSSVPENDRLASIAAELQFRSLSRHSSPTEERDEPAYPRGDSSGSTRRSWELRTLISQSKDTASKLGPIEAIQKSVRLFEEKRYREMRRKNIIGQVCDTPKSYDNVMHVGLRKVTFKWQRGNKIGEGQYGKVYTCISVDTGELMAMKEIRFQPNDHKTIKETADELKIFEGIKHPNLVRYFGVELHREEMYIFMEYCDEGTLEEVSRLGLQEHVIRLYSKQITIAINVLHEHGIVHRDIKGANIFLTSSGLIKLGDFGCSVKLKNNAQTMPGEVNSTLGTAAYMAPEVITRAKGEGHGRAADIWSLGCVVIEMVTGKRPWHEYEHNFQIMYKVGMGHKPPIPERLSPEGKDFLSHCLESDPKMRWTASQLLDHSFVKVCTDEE
Chain of CSNK1A1 (P48729 whole entry): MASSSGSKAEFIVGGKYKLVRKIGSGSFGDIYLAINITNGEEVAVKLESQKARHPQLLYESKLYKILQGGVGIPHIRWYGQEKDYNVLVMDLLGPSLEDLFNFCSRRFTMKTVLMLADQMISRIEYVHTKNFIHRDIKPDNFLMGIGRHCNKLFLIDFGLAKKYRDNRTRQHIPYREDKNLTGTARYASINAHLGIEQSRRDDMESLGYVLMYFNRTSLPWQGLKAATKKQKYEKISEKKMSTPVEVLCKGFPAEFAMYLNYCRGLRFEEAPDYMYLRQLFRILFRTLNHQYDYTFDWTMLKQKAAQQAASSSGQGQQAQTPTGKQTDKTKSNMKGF
Chain of GSK3A (P49840 whole entry): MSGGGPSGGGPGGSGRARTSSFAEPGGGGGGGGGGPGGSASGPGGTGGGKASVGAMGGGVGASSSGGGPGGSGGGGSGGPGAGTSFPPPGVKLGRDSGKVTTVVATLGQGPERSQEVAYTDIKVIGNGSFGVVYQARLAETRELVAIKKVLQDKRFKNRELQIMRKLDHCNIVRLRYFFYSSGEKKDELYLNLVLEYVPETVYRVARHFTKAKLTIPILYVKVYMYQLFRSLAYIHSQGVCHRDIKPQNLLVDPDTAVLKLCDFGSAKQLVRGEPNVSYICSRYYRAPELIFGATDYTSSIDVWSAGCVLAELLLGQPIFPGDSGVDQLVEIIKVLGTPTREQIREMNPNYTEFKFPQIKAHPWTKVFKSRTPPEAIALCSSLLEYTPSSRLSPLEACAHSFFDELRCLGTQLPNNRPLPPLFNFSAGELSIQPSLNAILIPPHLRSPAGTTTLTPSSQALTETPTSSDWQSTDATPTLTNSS
T1 sequence (Q6P2M8 whole entry): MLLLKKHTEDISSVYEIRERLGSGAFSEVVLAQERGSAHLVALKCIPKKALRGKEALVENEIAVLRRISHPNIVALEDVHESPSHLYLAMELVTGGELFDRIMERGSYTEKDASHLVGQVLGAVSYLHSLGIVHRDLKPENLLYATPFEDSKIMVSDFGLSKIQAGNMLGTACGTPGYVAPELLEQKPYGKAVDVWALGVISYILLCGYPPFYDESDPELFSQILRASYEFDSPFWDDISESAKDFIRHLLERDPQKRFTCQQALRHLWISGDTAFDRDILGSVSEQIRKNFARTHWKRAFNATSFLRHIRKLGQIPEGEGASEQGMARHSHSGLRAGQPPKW
T3 sequence (O95747 whole entry): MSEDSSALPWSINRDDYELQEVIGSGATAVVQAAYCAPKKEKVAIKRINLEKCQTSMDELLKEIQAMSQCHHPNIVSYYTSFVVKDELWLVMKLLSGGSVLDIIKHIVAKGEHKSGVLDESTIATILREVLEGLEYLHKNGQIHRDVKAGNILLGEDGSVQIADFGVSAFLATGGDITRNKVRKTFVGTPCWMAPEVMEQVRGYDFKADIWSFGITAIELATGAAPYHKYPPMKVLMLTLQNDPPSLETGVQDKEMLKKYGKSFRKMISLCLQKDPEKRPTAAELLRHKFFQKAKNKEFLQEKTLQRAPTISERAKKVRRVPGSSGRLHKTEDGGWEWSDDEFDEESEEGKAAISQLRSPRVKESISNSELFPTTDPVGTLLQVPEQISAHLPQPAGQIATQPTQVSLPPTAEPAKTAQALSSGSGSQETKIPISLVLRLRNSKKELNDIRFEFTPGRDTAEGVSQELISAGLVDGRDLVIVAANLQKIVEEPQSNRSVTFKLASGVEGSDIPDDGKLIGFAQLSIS

Molecule `NC(=O)c1cccc2cn(-c3ccc([C@@H]4CCCNC4)cc3)nc12` [Niraparib] has a percent of control binding at 10 µM [1, 8] of 34%, a percent of control binding at 10 µM [2, 8] of 94% and a percent of control binding at 10 µM [3, 8] of 94%. It also gave a percent of control binding at 10 µM [4, 8] of 87%, a percent of control binding at 10 µM [5, 8] of 98% and a percent of control binding at 10 µM [6, 8] of 70%. It also gave a percent of control binding at 10 µM [7, 8] of 48%.

Work on `O=C(c1cc(Cc2n[nH]c(=O)c3ccccc23)ccc1F)N1CCN(C(=O)C2CC2)CC1` [Olaparib] yielded a percent of control binding at 10 µM [1, 9] of 81%, a percent of control binding at 10 µM [2, 9] of 100% and a percent of control binding at 10 µM [3, 9] of 97%. For the same molecule, the percent of control binding at 10 µM [4, 9] was 98%, the percent of control binding at 10 µM [5, 9] was 88% and the percent of control binding at 10 µM [6, 9] was 100%. It also gave a percent of control binding at 10 µM [7, 9] of 95%.

`CNCc1ccc(-c2[nH]c3cc(F)cc4c3c2CCNC4=O)cc1` [Rucaparib] gave a percent of control binding at 10 µM [1, 10] of 39%, a percent of control binding at 10 µM [2, 10] of 100% and a percent of control binding at 10 µM [3, 10] of 100%. The percent of control binding at 10 µM [4, 10] was 91%, the percent of control binding at 10 µM [5, 10] was 71% and the “Rucaparib / %Ctrl @ 10000nM” value ([6]; binding competition, % of control) was 98%. It also gave a percent of control binding at 10 µM [7, 10] of 21%.

With `Cn1ncnc1[C@H]1c2n[nH]c(=O)c3cc(F)cc(c23)N[C@@H]1c1ccc(F)cc1` [Talazoparib] the percent of control binding at 10 µM [1, 11] was 73%, the percent of control binding at 10 µM [2, 11] was 90% and the percent of control binding at 10 µM [3, 11] was 100%. It also gave a percent of control binding at 10 µM [4, 11] of 100%, a percent of control binding at 10 µM [5, 11] of 90% and a percent of control binding at 10 µM [6, 11] of 94%. The percent of control binding at 10 µM [7, 11] was 100%.
